According to US9376391B2, “Difluoromethyl-nicotinic-tetrahydronaphthyl carboxamides as fungicides” (BAYER CROPSCIENCE AKTIENGESELLSCHAFT, priority 2012, dated 2016):

How the values were obtained:
Puccinia recondita = assay: In vivo preventive test on Puccinia recondita (brown rust on wheat)
Summary of the method: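 Wheat seedlings ("Scipion") sprayed with compound at the 1-leaf stage, inoculated 24 h later with Puccinia recondita spores (100 000 spores per ml). Incubated 24 h at 20° C and 100% RH, then 10 days at 20° C and 70-80% RH. Efficacy (%) versus solvent-treated controls graded 12 days after contamination.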

Phakopsora pachyrhizi = assay: Phakopsora test (soybeans)/preventive; format: in vivo; conditions: 100 ppm of active ingredient, evaluated 7 days after inoculation
Method: Phakopsora Test (Soybeans)/Preventive
To produce a suitable preparation of active compound, 1 part by weight of active compound is mixed with the stated amounts of solvent and emulsifier, and the concentrate is diluted with water to the desired concentration.
To test for preventive activity, young plants are sprayed with the preparation of active compound at the stated rate of application. After the spray coating has dried on, the plants are inoculated with an aqueous spore suspension of the causal agent of soybean rust (Phakopsora pachyrhizi) and stay for 24 h without light in an incubation cabinet at approximately 24° C. and a relative atmospheric humidity of 95%.
The plants remain in the incubation cabinet at approximately 24° C. and a relative atmospheric humidity of approximately 80% and a day/night interval of 12 h.
The test is evaluated 7 days after the inoculation. 0% means an efficacy which corresponds to that of the untreated control, while an efficacy of 100% means that no disease is observed.

## CC1CC(C)(C)c2cccc(NC(=O)c3cccnc3C(F)F)c21 (stereo not shown) [Example 1]
Puccinia recondita; dose 100 ppm of active ingredient, comparison with known compounds
  protection (in words): total protection
Puccinia recondita; dose 100 ppm, comparison with known compounds, same conditions
  Efficacy: 100%
Puccinia recondita; dose 500 ppm, wheat, spray, graded 12 days after contamination vs control plants
  Eff. %: 100%
Phakopsora pachyrhizi
  Eff. %: 99%
